Data set [1] deals with L. tropica promastigotes. As to the kind of experiment: Leishmania promastigotes in vitro susceptibility (MTT), L. tropica. As to conditions: 48 h, at least three independent assays; for IC50: read-out: Promastigotes Susceptibility IC50 ± SEM, L. tropica. The class given is cell-based.
The subject of the next data set is THP-1 cell line. Nature of the data set: In vitro cytotoxicity assessment in THP-1 cell line (MTT). The class given is cell-based, human. The settings on record: for CC50: THP-1 cells, 48 h, MTT, at least three independent assays, read-out: Cytotoxicity CC50 ± SEM; for selectivity (SI values): THP-1 cytotoxicity versus antileishmanial activity of free hybrids (promastigotes). As to the method:
(§1) THP-1 (ATCC® TIB-202TM) human acute monocytic leukemic cell line was obtained from DSMZ, Germany and cultured in RPMI 1640 (Sigma, Darmstadt, Germany) supplemented with 10% (v/v) FBS, 1% (v/v) penicillin-streptomycin (Sigma), and L-glutamine 200 mM (Sigma) at 37 °C, 5% CO2.
(§2) THP-1 cell line was used to calculate the endoperoxide–pyrazole hybrids’ half-maximal cytotoxic concentration (CC50). THP-1 was plated at a final density of 5 × 10^5 cells/mL, in 96-well flat bottom culture plates (VWR), using six different concentrations of the compounds (OZ1, OZ2, T1, T2 and PIR: 800, 400, 200, 100, 50, 25 µM) and amphotericin B (10, 5, 2.5, 1.25, 0.625, 0.313 µM). A blank (RPMI medium alone) and an untreated control (parasites with RPMI medium plus 1% DMSO as vehicle solution) were also included. All the compounds were plated out in quadruplicate and incubated for 48 h at 37 °C ± 1 °C, 5% CO2.
(§3) Following the incubation period, 20 µL per well of MTT was added as described in Section 3.5.2. After absorbance readings, the CC50 values of each compound were determined with GraphPad Prism V 9.0 (Dotmatics, San Diego, CA, USA) as previously described. At least three independent assays were performed.

Data set [2] relates to L. infantum promastigotes. As to the kind of experiment: Leishmania promastigotes in vitro susceptibility (MTT), L. infantum. As to conditions: 48 h, at least three independent assays; for IC50: read-out: Promastigotes Susceptibility IC50 ± SEM, L. infantum. The class given is cell-based.
Data set [3] has as its system L. tropica promastigotes. Nature of the data set: Morphometric analysis of L. tropica promastigotes (optical microscopy, Giemsa). Format: cell-based, Leishmania tropica. The settings on record: 48 h, OZ1 300 µM, OZ2 200 µM; for Body size of L. tropica promastigotes: amphotericin B 0.62 µM; for Morphological alterations of L. tropica promastigotes: Giemsa, 1000×. The method, then: To detect morphological alterations, at the end of the incubation period (48 h), 30 µL of the parasite’s suspension were collected from different treatment concentrations of each compound to prepare smears on glass slides, fixed with methanol, and stained with 5% (v/v) Giemsa (Sigma). Stained slides were examined with bright field in an inverted microscope (Eclipse 80i Nikon, Tokyo, Japan) with 1000× amplification, and images were captured with a Nikon DS-Ri1 camera. Image J (version 1.53k) was used to measure promastigote body and flagellum size of at least 30 parasite samples.
Data were expressed as mean ± standard error of the mean (SEM), and statistical analysis was performed with one-way ANOVA (Bonferoni’s multiple comparisons test) to determine whether differences between means relatively to untreated control were significant at different levels (p < 0.05, p < 0.01, p < 0.001).

Data set [4] can be described thus: In vitro cytotoxicity assessment in THP-1 cell line (MTT). Format: cell-based, human. As to conditions: human, THP-1 cells, 48 h, MTT; at least three independent assays; read-out: Cytotoxicity CC50 ± SEM. As to the method: as §1, §2, §3
The subject of data set [5] is intracellular amastigotes of L. infantum. Nature of the data set: Intracellular amastigotes susceptibility in THP-1-derived macrophages (infection index). The class given is cell-based, Leishmania infantum. The settings on record: for SI (selectivity index): SI for amastigote forms = CC50 THP-1 / IC50 L. infantum; for IC50: THP-1-derived macrophages, 72 h, infection index, two independent assays, read-out: Intracellular Amastigote Susceptibility IC50 ± SEM, L. infantum. As to the method:
The in vitro intracellular amastigote assay was performed using a THP1 cell line maintained in complete RPMI at 37 °C, 5% CO2. After 24 h differentiation of 5 × 10^5 cells/mL into macrophages in sterile 16-chamber LabTek slides (Thermo Scientific, Waltham, MA, USA) with 25 ng mL^−1 phorbol myristic acid (PMA, Sigma), cells were washed once with warm RPMI to remove non-differentiated and non-adherent cells and further infected with 5 × 10^6 promastigotes/mL in a 10:1 parasite–macrophage ratio for another 24 h. After this period, slides were gently washed once with warm RPMI to remove non-internalised promastigotes. The compounds 2o, 2t, OZ1•HCl, OZ1•MsOH, and OZ1•TsOH at concentrations ranging 400 µM to 50 µM were added, and the slides were further incubated at 37 °C, 5% CO2 for 72 h. After this period, cells were washed with warm PBS, fixed with methanol (Sigma) and stained with Giemsa 5% (Sigma). AmB was used as positive control, and macrophages cultivated in RPMI medium and DMSO (0.5% v/v) were used as negative control. The infection index was determined by multiplying the percentage of infected cells and the number of amastigotes per infected cell as previously described. The results represent the average of two experiments. The IC50 for each compound was calculated by fitting the data as a non-linear regression with variable slope using a dose–response inhibitory model in the GraphPad Prism V 8.0 (Dotmatics, San Diego, CA, USA) program.
Selectivity index (SI) was determined for each compound as the quotient between the cytotoxicity in cell lines (CC50) and the inhibitory concentration (IC50) (SI = CC50 in mammalian cells/IC50 L. infantum).

[6] abbreviates: Leishmania infantum, Macrophage.

Molecules are shown by their SMILES. Where a name gives a salt, the structure may show the parent alone. Read-outs that look alike come from different tables or passages of the source.

Consider `Nc1ccnn1C(=O)C1CCC2(CC1)OOC1(OO2)C2CC3CC(C2)CC1C3` (stereo not drawn) [T1•TsOH, (5-Amino-1H-pyrazol-1-yl) (dispiro[cyclohexane-1,3′-[1,2,4,5]tetraoxane-6′,2″-tricyclo-[3.3.1.1^3,7]-decan]-4-yl) methanone p-tosylate], for which the IC50 (in the data set on L. tropica promastigotes [1]; in data set [2]) was greater than 400 µM in each case. In addition, the CC50 in the data set on THP-1 cell line amounted to 331 ± 126 µM.

With `Nc1ccn(C(=O)C2CCC3(CC2)OOC2(OO3)C3CC4CC(C3)CC2C4)n1` (stereo not drawn) [T2•HCl, (3-Amino-1H-pyrazol-1-yl) (dispiro[cyclohexane-1,3′-[1,2,4,5]tetraoxane-6′,2″-tricyclo [3.3.1.1^3,7]decan]-4-yl) methanone hydrochloride], the IC50 amounted to 266 ± 8 µM in the data set on L. tropica promastigotes [1] and 313 ± 40 µM in data set [2]. The CC50 in the data set on THP-1 cell line came to 444 ± 22 µM.

On to `Nc1ccn(C(=O)C2CCC3(CC2)OOC2(OO3)C3CC4CC(C3)CC2C4)n1` (stereo not drawn) [T1•HCl, (3-Amino-1H-pyrazol-1-yl) (dispiro[cyclohexane-1,3′-[1,2,4,5]tetraoxane-6′,2″-tricyclo [3.3.1.1^3,7]decan]-4-yl) methanone hydrochloride], for which the IC50 (in the data set with L. tropica promastigotes [1] (Leishmania tropica); in data set [2] (Leishmania infantum)) was greater than 400 µM each time. Moreover, the CC50 in the data set with THP-1 cell line came out at 529 ± 108 µM.

With `Nc1ccn(C(=O)C2CCC3(CC2)OOC2(O3)C3CC4CC(C3)CC2C4)n1` (stereo not drawn) [OZ2, (3-Amino-1H-pyrazol-1-yl)(dispiro[cyclohexane-1,3′-[1,2,4]trioxolane-5′,2″-tricyclo[3.3.1.1^3,7]decan]-4-yl)methanone], in the data set with L. tropica promastigotes [1], the IC50 turned out to be 161 ± 19 µM. In the data set on THP-1 cell line, the CC50 is 202 ± 116 µM and the “selectivity (SI values)” value is less than 5. Moreover, in the data set on L. tropica promastigotes [3], the “Flagellum size of L. tropica promastigotes” value was found to be 12.404 ± 3.745 µm, the “Body size of L. tropica promastigotes” value is listed as 9.646 ± 2.744 µm and the “Morphological alterations of L. tropica promastigotes” value is recorded as “considerable damage”. For the same compound, the IC50 in data set [2] (Leishmania infantum) came to 219 ± 44 µM.

On to `Nc1ccnn1C(=O)C1CCC2(CC1)OOC1(O2)C2CC3CC(C2)CC1C3` (stereo not drawn) [OZ1, (5-Amino-1H-pyrazol-1-yl)(dispiro[cyclohexane-1,3′-[1,2,4]trioxolane-5′,2″-tricyclo-[3.3.1.1^3,7]-decan]-4-yl)methanone], for which the half-maximal inhibitory concentration (IC50) in the data set on L. tropica promastigotes [1] (Leishmania tropica) came out at 219 ± 25 µM. Moreover, the “selectivity (SI values)” value with THP-1 cell line is less than 5. Also, the CC50 at 48 h in data set [4] stood at 664 ± 163 µM. In the data set on L. tropica promastigotes [3], the “Flagellum size of L. tropica promastigotes” value worked out at 13.561 ± 3.535 µm, the “Body size of L. tropica promastigotes” value is listed as 5.265 ± 1.733 µm and the “Morphological alterations of L. tropica promastigotes” value is on record as “considerable damage”. Also, in data set [2], the “Promastigotes Susceptibility IC50 ± SEM, L. infantum” value is on record as “lack of activity” and the IC50 was greater than 400 µM.

Take `Nc1ccn(C(=O)C2CCC3(CC2)OOC2(O3)C3CC4CC(C3)CC2C4)n1` (stereo not drawn) [OZ2•HCl, (3-Amino-1H-pyrazol-1-yl) (dispiro[cyclohexane-1,3′-[1,2,4]trioxolane-5′,2″-tricyclo-[3.3.1.1^3,7]decan]-4-yl) methanone hydrochloride]: the figures for the IC50 (in the data set on L. tropica promastigotes [1]; in data set [2]) were greater than 400 µM and 258 ± 91 µM, respectively. Further, the CC50 in the data set on THP-1 cell line was 425 ± 104 µM.

Regarding `Nc1ccnn1C(=O)C1CCC2(CC1)OOC1(O2)C2CC3CC(C2)CC1C3` (stereo not drawn) [OZ1•TsOH, (5-Amino-1H-pyrazol-1-yl)(dispiro[cyclohexane-1,3′-[1,2,4]trioxolane-5′,2″-tricyclo-[3.3.1.1^3,7]-decan]-4-yl)methanone p-tosylate], the IC50 in the data set with L. tropica promastigotes [1] is 199 ± 9 µM; in data set [5] it was 246 ± 32 µM; in data set [2] it was 181 ± 35 µM. In data set [5], the “SI (selectivity index)” value is recorded as 2.1. In addition, the CC50 with THP-1 cell line is 510 ± 109 µM.

For `CS(=O)(=O)O.Nc1ccnn1C(=O)C1CCC2(CC1)OOC1(O2)C2CC3CC(C2)CC1C3` (stereo not drawn) [OZ1•MsOH, (5-Amino-1H-pyrazol-1-yl) (dispiro[cyclohexane-1,3′-[1,2,4]trioxolane-5′,2″-tricyclo-[3.3.1.1^3,7]-decan]-4-yl) methanone mesylate], the results for the IC50 (in the data set with L. tropica promastigotes [1]; in data set [5]; in data set [2]) were 198 ± 24 µM, greater than 400 µM and 183 ± 48 µM, respectively. The “SI (selectivity index)” value in data set [5] was less than 0.8. In the data set on THP-1 cell line, the CC50 worked out at 336 ± 196 µM.

For `Nc1cc[nH]n1` [PIR, 3-aminopyrazole, reference compound], the “Promastigotes Susceptibility IC50 ± SEM, L. tropica” value in the data set with L. tropica promastigotes [1] is on record as “devoid of antileishmanial activity”. For the same compound, the IC50 (in the data set with L. tropica promastigotes [1] (Leishmania tropica); in data set [2] (Leishmania infantum)) was greater than 400 µM throughout. The CC50 at 48 h in data set [4] stood at 202 ± 10 µM. Further, the “Promastigotes Susceptibility IC50 ± SEM, L. infantum” value in data set [2] is on record as “devoid of antileishmanial activity”.

In the case of `CCOC(=O)C1CCC2(CC1)OOC1(O2)C2CC3CC(C2)CC1C3` (stereo not drawn) [2o, Ethyl dispiro[cyclohexane-1,3′-[1,2,4]trioxolane-5′,2″-tricyclo[3.3.1.1^3,7]decane]-4-carboxylate], the IC50 with L. tropica promastigotes [1] (Leishmania tropica) was 156 ± 18 µM; in data set [5] (setting [6]), 330 ± 48 µM; in data set [2] (Leishmania infantum), 123 ± 1 µM. The “SI (selectivity index)” value in data set [5] is given as 1.2. Besides, the CC50 at 48 h in data set [4] is 381 ± 172 µM.

For the compound `Nc1ccn(C(=O)C2CCC3(CC2)OOC2(O3)C3CC4CC(C3)CC2C4)n1` (stereo not drawn) [OZ2•TsOH, (3-Amino-1H-pyrazol-1-yl) (dispiro[cyclohexane-1,3′-[1,2,4]trioxolane-5′,2″-tricyclo-[3.3.1.1^3,7]decan]-4-yl) methanone p-tosylate], the half-inhibitory concentration (IC50) with L. tropica promastigotes [1] came to 260 ± 82 µM; in data set [2] it was 217 ± 47 µM. In addition, the CC50 with THP-1 cell line was 479 ± 83 µM.

As for `Cl.Nc1ccnn1C(=O)C1CCC2(CC1)OOC1(O2)C2CC3CC(C2)CC1C3` (stereo not drawn) [OZ1•HCl, (5-Amino-1H-pyrazol-1-yl) (dispiro[cyclohexane-1,3′-[1,2,4]trioxolane-5′,2″-tricyclo-[3.3.1.1^3,7]-decan]-4-yl) methanone hydrochloride], the IC50 with L. tropica promastigotes [1] was 135 ± 36 µM; in data set [5], 87 ± 39 µM; in data set [2] it was 164 ± 20 µM. In addition, the “SI (selectivity index)” value in data set [5] is 5.9. Further, the half-maximal cytotoxic concentration (CC50) in the data set with THP-1 cell line worked out at 509 ± 155 µM.

As to `CCOC(=O)C1CCC2(CC1)OOC1(OO2)C2CC3CC(C2)CC1C3` (stereo not drawn) [2t, Ethyl dispiro[cyclohexane-1,3′-[1,2,4,5]tetraoxane-6′,2″-tricyclo[3.3.1.1^3,7]decane]-4-carboxylate], the IC50 in the data set on L. tropica promastigotes [1] (Leishmania tropica) was found to be 143 ± 9 µM; in data set [5] (setting [6]) it was 45 ± 28 µM; in data set [2] (Leishmania infantum) it was 128 ± 27 µM. Further, the “SI (selectivity index)” value in data set [5] came to 8.4. Besides, in data set [4], the 50% cytotoxic concentration (CC50) at 48 h came to 374 ± 119 µM.

Usually IC50 stands for the point on the concentration scale where inhibition reaches its midpoint. For orientation: CC50 means the concentration that lowers cell viability or growth by half.
